US20230355618A1, “RAF INHIBITOR FOR TREATING LOW GRADE GLIOMA” (Day One Biopharmaceuticals, Inc., priority 2020, published 2023)

Tests used:
[1] = Phase 1 pediatric dose-escalation trial: pharmacokinetic studies (exposure, AUC0-∞); format: in vivo, human; conditions: for AUC(0-inf): human, plasma, oral
Experimental: (§1) A 3+3 design is used. Based on the adult dose of 350 mg/m^2 by mouth every week (using a typical adult BSA of 1.7 m^2), the starting dose for the pediatric study was 80% of the adult RP2D, which was 280 mg/m^2 by mouth every week. Doses were escalated in an inter-patient stepwise fashion until dose-limiting toxicities (DLTs) were observed. The three different dose levels: 280 mg/m^2, 350 mg/m^2, and […].
(§2) Treatment began at 80% of the adult dose (i.e., 280 mg/m^2 by mouth once weekly based on the following calculation: • An adult dose of 600 mg once weekly and an average adult BSA (m^2) of 1.73 m^2=350 mg/m^2 • 80% of 350 mg/m^2=280 mg/m^2 starting dose
(§3) The dose escalation scheme is described in Table 1-A. The initial phase included 3 dose escalation levels to a maximum of 530 mg/m^2/dose weekly.
Pharmacokinetic studies were performed on all patients in the phase I component of the trial as venous access allowed. The initial phase 1 included 3 dose escalation levels to a maximum of 530 mg/m^2/dose weekly. PK studies were also conducted to evaluate phosphorylated ERK in the peripheral blood mononuclear cells.

[2] = test system: pediatric low grade glioma (pLGG); experiment: Phase 1 pediatric dose-escalation trial: tumor response by RANO criteria; format: in vivo, human; conditions: for Best RANO Response (T1-Gad): pLGG
Experimental: as §1, §2, §3
FIG. 2 illustrates Phase 1 trial data of these nine individual pediatric LGG (pLGG) patient responses to Compound A over time. […] The median time to response was 10.5 weeks. Two patients achieved a complete response that was maintained throughout the dosing period of up to two years.
Two of eight patients with a RAF fusion had prolonged stable disease.

[3] = pLGG patients with a RAF fusion, Phase 1

Dose normalized AUC0-∞ ([1]; Subject-1 (PNOC014-01), predicted exposure at 530 mg/m^2 (predicted dose 456, 21 mg/kg), original dose cohort 280 mg/m^2): 1268 µg·h/L
Dose normalized AUC0-∞ ([1]; Subject-2 (PNOC014-02), predicted exposure at 530 mg/m^2 (predicted dose 530, 19 mg/kg), original dose cohort 280 mg/m^2): 682 µg·h/L
Dose normalized AUC0-∞ ([1]; Subject-3 (PNOC014-03), predicted exposure at 530 mg/m^2 (predicted dose 419, 23 mg/kg), original dose cohort 280 mg/m^2): 614 µg·h/L
Dose normalized AUC0-∞ ([1]; Subject-4 (PNOC014-04), predicted exposure at 530 mg/m^2 (predicted dose 906, 13 mg/kg), original dose cohort 350 mg/m^2): 705 µg·h/L
Dose normalized AUC0-∞ ([1]; Subject-5 (PNOC014-05), predicted exposure at 530 mg/m^2 (predicted dose 906, 14 mg/kg), original dose cohort 350 mg/m^2): 653 µg·h/L
Dose normalized AUC0-∞ ([1]; Subject-6 (PNOC014-06), predicted exposure at 530 mg/m^2 (predicted dose 848, 16 mg/kg), original dose cohort 350 mg/m^2): 640 µg·h/L
Dose normalized AUC0-∞ ([1]; Subject-7 (PNOC014-07), predicted exposure at 530 mg/m^2 (predicted dose 784, 15 mg/kg), original dose cohort 420 mg/m^2): 701 µg·h/L
Dose normalized AUC0-∞ ([1]; Subject-9 (PNOC014-09), predicted exposure at 530 mg/m^2 (predicted dose 376, 24 mg/kg), original dose cohort 420 mg/m^2): 1122 µg·h/L
AUC(0-inf) ([1]; 280 mg/m^2, Subject-1 (PNOC014-01), 21.9 kg, BSA 0.86 m^2, dose cohort 280 mg/m^2 by mouth once weekly, dose given 240 mg (11.0 mg/kg)): 670 ng·h/mL
AUC(0-inf) ([1]; 280 mg/m^2, Subject-2 (PNOC014-02), 28.2 kg, BSA 1.0 m^2, dose cohort 280 mg/m^2 by mouth once weekly, dose given 280 mg (9.9 mg/kg)): 361 ng·h/mL
AUC(0-inf) ([1]; 280 mg/m^2, Subject-3 (PNOC014-03), 18.1 kg, BSA 0.79 m^2, dose cohort 280 mg/m^2 by mouth once weekly, dose given 220 mg (12.2 mg/kg)): 324 ng·h/mL
AUC(0-inf) ([1]; 350 mg/m^2, Subject-4 (PNOC014-04), 69.6 kg, BSA 1.71 m^2, dose cohort 350 mg/m^2 by mouth once weekly, dose given 600 mg (8.6 mg/kg)): 466 ng·h/mL
AUC(0-inf) ([1]; 350 mg/m^2, Subject-5 (PNOC014-05), 66.5 kg, BSA 1.71 m^2, dose cohort 350 mg/m^2 by mouth once weekly, dose given 600 mg (9.0 mg/kg)): 431 ng·h/mL
AUC(0-inf) ([1]; 350 mg/m^2, Subject-6 (PNOC014-06), 53.6 kg, BSA 1.6 m^2, dose cohort 350 mg/m^2 by mouth once weekly, dose given 560 mg (10.4 mg/kg)): 423 ng·h/mL
AUC(0-inf) ([1]; 420 mg/m^2, Subject-7 (PNOC014-07), 53.7 kg, BSA 1.48 m^2, dose cohort 420 mg/m^2 by mouth once weekly, dose given 620 mg (11.5 mg/kg)): 556 ng·h/mL
AUC(0-inf) ([1]; 420 mg/m^2, Subject-9 (PNOC014-09), 15.6 kg, BSA 0.71 m^2, dose cohort 420 mg/m^2 by mouth once weekly, dose given 300 mg (19.2 mg/kg)): 889 ng·h/mL
Compound: C[C@@H](NC(=O)c1ncnc(N)c1Cl)c1ncc(C(=O)Nc2cc(C(F)(F)F)c(Cl)cn2)s1 [Compound A, (R)-2-(1-(6-amino-5-chloropyrimidine-4-carboxamido)ethyl)-N-(5-chloro-4-(trifluoromethyl)pyridin-2-yl)thiazole-5-carboxamide]
patients who did not respond ([2]; NF1-associated pLGG, Phase 1): One
Best RANO Response (T1-Gad) ([2]; Subject-1 (PNOC014-01), BSA 0.86 m^2, dose cohort 280 mg/m^2 once weekly): CR (CR = −100%)
Best RANO Response (T1-Gad) ([2]; Subject-2 (PNOC014-02), BSA 1.0 m^2, dose cohort 280 mg/m^2 once weekly): PR (PR = −50% or more reduction from baseline)
Best RANO Response (T1-Gad) ([2]; Subject-3 (PNOC014-03), BSA 0.79 m^2, dose cohort 280 mg/m^2 once weekly): PR (PR = −50% or more reduction from baseline)
Best RANO Response (T1-Gad) ([2]; Subject-4 (PNOC014-04), BSA 1.71 m^2, dose cohort 350 mg/m^2 once weekly): PD (PD = ≥25% growth from nadir)
Best RANO Response (T1-Gad) ([2]; Subject-5 (PNOC014-05), BSA 1.71 m^2, dose cohort 350 mg/m^2 once weekly): SD (SD = between −50% and +25%)
Best RANO Response (T1-Gad) ([2]; Subject-6 (PNOC014-06), BSA 1.6 m^2, dose cohort 350 mg/m^2 once weekly): PD (PD = ≥25% growth from nadir)
Best RANO Response (T1-Gad) ([2]; Subject-7 (PNOC014-07), BSA 1.48 m^2, dose cohort 420 mg/m^2 once weekly): SD (SD = between −50% and +25%)
Best RANO Response (T1-Gad) ([2]; Subject-9 (PNOC014-09), BSA 0.71 m^2, dose cohort 420 mg/m^2 once weekly): PR (PR = −50% or more reduction from baseline)
patients achieving a complete response maintained throughout the dosing period of up to two years ([2]; nine pLGG patients, Phase 1): Two
patients achieving prolonged stable disease ([2]; nine pLGG patients, Phase 1): two
patients who did not achieve a response ([2]; nine pLGG patients, Phase 1): two
patients with a partial response ([2]; nine pLGG patients, Phase 1): Three
patients with shrinkage in lesion size in the first radiologic images after initiation of dosing ([2]; nine pLGG patients, Phase 1): six of nine
median time to response ([2]; nine pLGG patients, Phase 1, 280-420 mg/m^2 once weekly): 10.5 weeks
patients who did not respond [2, 3]: One
patients with complete or partial response per RANO criteria (≥50% decrease compared with baseline) [2, 3]: Five of the eight
patients with prolonged stable disease [2, 3]: Two of eight
